We go through 13 molecules from patent US4596873A, “1,4,5,6,7,8-Hexahydro-2-alkyl-4-aryl-5-oxo-1,7-naphthyridine-3-carboxyl ic acid aromatic esters and pharmaceutically acceptable acid addition salts thereof useful as antihypertensive agents” (American Home Products Corporation, priority 1985, dated 1986).

Assay [1] has as its system Ca^+2 -calmodulin dependent myosin light chain phosphorylation. Briefly: inhibition of Ca^+2-calmodulin dependent myosin light chain phosphorylation (MLCP). The class given is biochemical. As to the method:
(§1) The data reported herein was obtained at a six minute time-point rather than the 1.5, 5 and 12 minute time points indicated in the superprecipitation assay of the Silver et al. paper.
(§2) The following examples illustrate the preparation of a representative number of compounds of this invention. After each example, and Ca^+2 antagonist activity of the compound is presented in terms of percent relaxation of aortic tissue (P.R.) at 10^-5 M concentration. […] Inhibition of superprecipitation (Antag. of Actin-Myosin interaction) is expressed as percent inhibition (mean±standard error of the mean for at least 3 separate experiments) at a compound concentration. In the same manner, inhibition of myosin light chain phosphorylation (Antag. of MLCP) is expressed as a percent inhibition at a compound concentration. Similarly, the antihypertensive activity is reported in terms of millimeters mercury (mmHg) systolic blood pressure (B.P.) reduction at the stated time post 50 mg/kg oral dosing or other dosing as indicated.

The test system of assay [2] is arterial actin-myosin interactions. Briefly: inhibition of superprecipitation (antagonism of arterial actin-myosin interaction). Conditions: six minute time-point, mean±SEM. The assay is classed as biochemical. As to the method: as §1, §2
Assay [3] deals with spontaneously hypertensive rats. The experiment in a line: decrease in systolic blood pressure of spontaneously hypertensive rats. The assay is classed as in vivo, rat.
Assay [4] concerns isolated paced intact rabbit atria. The experiment in a line: negative inotropic (cardiac depressant) effect in isolated paced intact rabbit atria. The assay is classed as cell-based. The procedure:
The potential for detrimental cardiac depressant (negative inotropic) effects of the compounds of this invention was assessed in isolated paced intact rabbit atria. Left and right atria (with nodal tissue excised) were suspended vertically in a jacketed (30° C.) organ bath containing 50 ml of PSS and aerated with 95% O2 /5% CO2. Muscles (N=5-9/compound) were stimulated at a frequency of 3 Hz with a WPI stimulator for a 60 minute equilibration period. Changes in isometric force were recorded as described for the aortic smooth muscle experiments,supra. Following equilibration, the test compound (or as a control, the ethanol vehicle) was added to the organ bath in a cumulative manner from doses ranging from 10^-9 M to 10^-5 M (10^-5 M was the maximum dose which could be attained due to the depressant effect of ethanol) and effects on developed isometric force were determined.
as §2

With `CC1=C(C(=O)OCCOc2ccccc2)C(c2c(F)c(F)c(F)c(F)c2F)C2=C(CNCC2=O)N1` (single isomer, unassigned; (+)) [Example 4, (+)-1,4,5,6,7,8-Hexahydro-2-methyl-5-oxo-4-(pentafluorophenyl)-1,7-naphthyridine-3-carboxylic acid 2-phenoxyethyl ester], the “inhibition of myosin light chain phosphorylation (Antag. of MLCP)” value (“inhibition … (Antag. of MLCP)” below) in assay [1] (50 μM) stood at 37%; in assay [1] (100 μM) it was 67%. Further, the “inhibition of superprecipitation (Antag. of Actin-Myosin)” value (shortened to “inhibition of superprecipitation”) in assay [2] (50 μM) came to 38%; in assay [2] (100 μM) it was 71%. Further, the “systolic blood pressure (B.P.) reduction” value in assay [3] (25 mg/kg, 1.5 hours) is -58 mmHg; in assay [3] (25 mg/kg, 4 hours) it was -78 mmHg. The “IC25 (concentration which produces 25% inhibition of isometric force)” value in assay [4] (3 Hz, cumulative 10^-9 M to 10^-5 M) is 800 nM.

As for `CC1=C(C(=O)OCCOc2ccccc2)C(c2ccccc2C)C2=C(CNCC2=O)N1` (stereo not drawn) [Example 15, 1,4,5,6,7,8-Hexahydro-2-methyl-4-(2-methylphenyl)-5-oxo-1,7-naphthyridine-3-carboxylic acid 2-phenoxyethyl ester], the “inhibition … (Antag. of MLCP)” value in assay [1] (100 μM) is recorded as 61±5%. Moreover, in assay [2] (100 μM), the “inhibition of superprecipitation” value turned out to be 66±5%. Also, the “systolic blood pressure (B.P.) reduction” value in assay [3] (25 mg/kg, 1.5 hours) is given as -29 mmHg; in assay [3] (25 mg/kg, 4 hours), -39 mmHg.

In the case of `CC1=C(C(=O)OCCOc2ccccc2)C(c2c(F)ccc(F)c2F)C2=C(CNCC2=O)N1` (stereo not drawn) [Example 16, 1,4,5,6,7,8-Hexahydro-2-methyl-5-oxo-4-(2,3,6-trifluorophenyl)-1,7-naphthyrdine-3-carboxylic acid 2-phenoxyethyl ester], the “inhibition … (Antag. of MLCP)” value in assay [1] (100 μM) worked out at 28%. The “inhibition of superprecipitation” value in assay [2] (100 μM) is on record as 34%. Besides, in assay [3] (25 mg/kg, 4 hours), the “systolic blood pressure (B.P.) reduction” value is given as -18 mmHg.

With `CC1=C(C(=O)OCCc2ccccc2)C(c2c(F)c(F)c(F)c(F)c2F)C2=C(CNCC2=O)N1` (stereo not drawn) [Example 18, 1,4,5,6,7,8-Hexahydro-2-methyl-5-oxo-4-(pentafluorophenyl)-1,7-naphthyridine-3-carboxylic acid 2-phenylethyl ester], the “inhibition … (Antag. of MLCP)” value was determined as 35% in assay [1] (25 μM), 64% in assay [1] (50 μM) and 77±3% in assay [1] (100 μM). Besides, the “inhibition of superprecipitation” value in assay [2] (25 μM) was 42%; in assay [2] (50 μM) it was 65%; in assay [2] (100 μM), 78±2%. Besides, the “systolic blood pressure (B.P.) reduction” value in assay [3] (10 mg/kg, 1.5 hours) is given as -27 mmHg; in assay [3] (10 mg/kg, 4 hours) it was -24 mmHg.

`CC1=C(C(=O)OCCOc2ccccc2)C(c2cccc(Cl)c2Cl)C2=C(CNCC2=O)N1.Cl` (stereo not drawn) [Example 19, 4-(2,3-Dichlorophenyl)-1,4,5,6,7,8-hexahydro-2-methyl-5-oxo-1,7-naphthyridine-3-carboxylic acid 2-phenoxyethyl ester, hydrochloride]: in assay [1] (100 μM), the “inhibition … (Antag. of MLCP)” value is 69%. Moreover, the “inhibition of superprecipitation” value in assay [2] (100 μM) was found to be 71%. Further, the “systolic blood pressure (B.P.) reduction” value is -50 mmHg in assay [3] (50 mg/kg oral, 1.5 hours) and -73 mmHg in assay [3] (50 mg/kg oral, 4 hours).

On to `CC1=C(C(=O)OCC(C)(C)Oc2ccccc2)C(c2c(F)c(F)c(F)c(F)c2F)C2=C(CNCC2=O)N1.Cl` (stereo not drawn) [Example 20, 1,4,5,6,7,8-Hexahydro-2-methyl-5-oxo-4-(pentafluorophenyl)-1,7-naphthyridine-3-carboxylic acid 2-methyl-2-phenoxypropyl ester, hydrochloride], for which the “inhibition … (Antag. of MLCP)” value in assay [1] (100 μM) came out at 62%. For the same molecule, the “inhibition of superprecipitation” value in assay [2] (100 μM) was determined as 67%. Further, the “systolic blood pressure (B.P.) reduction” value is on record as -64 mmHg in assay [3] (25 mg/kg, 1.5 hours) and -41 mmHg in assay [3] (25 mg/kg, 4 hours).

In the case of `CC1=C(C(=O)OCCCCOc2ccccc2)C(c2c(F)c(F)c(F)c(F)c2F)C2=C(CNCC2=O)N1` (stereo not drawn) [Example 21, 1,4,5,6,7,8-Hexahydro-2-methyl-5-oxo-4-(pentafluorophenyl)-1,7-naphthyridine-3-carboxylic acid 4-phenoxybutyl ester], the “inhibition … (Antag. of MLCP)” value in assay [1] (100 μM) is reported as 77%. In addition, the “inhibition of superprecipitation” value in assay [2] (100 μM) is 80%. The “systolic blood pressure (B.P.) reduction” value is 0 mmHg in assay [3] (25 mg/kg, 1.5 hours) and -49 mmHg in assay [3] (25 mg/kg, 4 hours).

For the molecule `CC1=C(C(=O)OCCOc2ccccc2)C(c2c(F)ccc(C)c2Cl)C2=C(CNCC2=O)N1` (stereo not drawn) [Example 23, 4-(2-chloro-6-fluoro-3-methylphenyl)-1,4,5,6,7,8-hexahydro-2-methyl-5-oxo-1,7-naphthyridine-3-carboxylic acid 2-phenoxyethyl ester], the “inhibition … (Antag. of MLCP)” value in assay [1] (50 μM) was 18%; in assay [1] (100 μM) it was 56%. The “inhibition of superprecipitation” value in assay [2] (50 μM) is listed as 23%; in assay [2] (100 μM), 62%. For the same molecule, the “systolic blood pressure (B.P.) reduction” value is reported as -22 mmHg in assay [3] (25 mg/kg, 1.5 hours) and -31 mmHg in assay [3] (25 mg/kg, 4 hours).

Turning to `CC1=C(C(=O)OCCOc2ccccc2)C(c2c(F)ccc(Cl)c2Cl)C2=C(CNCC2=O)N1` (stereo not drawn) [Example 24, 4-(2,3-Dichloro-6-fluorophenyl)-1,4,5,6,7,8-hexahydro-2-methyl-5-oxo-1,7-naphthyridine-3-carboxylic acid 2-phenoxyethyl ester], the “inhibition … (Antag. of MLCP)” value is 8±2% in assay [1] (25 μM), 50±2% in assay [1] (50 μM) and 68±1% in assay [1] (100 μM). The “inhibition of superprecipitation” value in assay [2] (25 μM) was determined as 9±2%; in assay [2] (50 μM) it was 54±3%; in assay [2] (100 μM), 72±1%. For the same molecule, the “systolic blood pressure (B.P.) reduction” value is on record as -17 mmHg in assay [3] (5 mg/kg, 1.5 hours); -26 mmHg in assay [3] (5 mg/kg, 4 hours); -6 mmHg in assay [3] (10 mg/kg, 1.5 hours); -26 mmHg in assay [3] (10 mg/kg, 4 hours); -50 mmHg in assay [3] (25 mg/kg, 1.5 hours); -70 mmHg in assay [3] (25 mg/kg, 4 hours).

On to `COc1ccc(CCN(C)CCCC(C#N)(c2ccc(OC)c(OC)c2)C(C)C)cc1OC` (stereo not drawn) [Verapamil, reference compound], for which the “cardiac depression / negative inotropism (in words)” value in assay [4] is “direct negative inotropism”.

For `CCOC(=O)C1=C(C)NC(C)=C(C(=O)OC)C1c1cccc(Cl)c1Cl` (stereo not drawn) [felodipine], the “cardiac depression / negative inotropism (in words)” value in assay [4] was “direct negative inotropism”. The IC25 in assay [4] (Oryctolagus cuniculus, 3 Hz, cumulative 10^-9 M to 10^-5 M, read-out: IC25 (concentration which produces 25% inhibition of isometric force)) came out at 800 nM.

With `COC(=O)C1=C(C)NC(C)=C(C(=O)OC)C1c1ccccc1[N+](=O)[O-]` [nifedipine, reference compound], in assay [4], the “cardiac depression / negative inotropism (in words)” value is recorded as “direct negative inotropism”.

Regarding `CCOC(=O)C1=C(C)NC(C)=C(C(=O)OC)C1c1cccc([N+](=O)[O-])c1` (stereo not drawn) [nitrendipine, reference compound], in assay [4], the “cardiac depression / negative inotropism (in words)” value was “direct negative inotropism”.
